Assay results published in patent publication US20220142158A1, “ARTHROPOD CONTROL COMPOSITIONS” (FIRMENICH SA, priority 2019, published 2022).

Tested on: Aedes aegypti
Assay: Warm Body Assay, in-vitro repulsion of mosquitoes
Conditions: 100% at concentration 0
Experimental: The arthropod controlling effect according to the present invention is determined on mosquitoes using an adapted Warm Body assay as defined in Kröber T, Kessler S, Frei J, Bourquin M, Guerin P M. An in vitro assay for testing mosquito controlling compounds employing a warm body and carbon dioxide as a behavioral activator. J Am Mosq Control Assoc. 2010; 26:381-386.
The controlling effect according to the present invention is determined by testing the Warm Body assay against the yellow fever mosquito, Aedes aegypti Rockefeller strain. […] Observations of controlling efficacy were made on host-seeking females of uniform age, 5 to 10 days old selected as mentioned in the publication mentioned hereinabove. Tested hungry females had access to 10% sugar solution but were not blood-fed.
(§1) The published protocol has been adapted in not manually counting the landing mosquitoes but automatically using an automatic counting software, the switch from Anopheles gambiae to A. aegypti led to a decrease of mosquitoes' number placed in the tested cage due to the size difference (i.e. 30 mosquitoes instead of 50) and to an increase of lighting as A. aegypti is a diurnal mosquitoes (i.e. 150 lux instead of 4 lux).
The controlling efficacy in vitro was by an adapted Warm Body assay as defined in Kröber T, Kessler S, Frei J, Bourquin M, Guerin P M. An in vitro assay for testing mosquito controlling compounds employing a warm body and carbon dioxide as a behavioral activator. J Am Mosq Control Assoc. 2010; 26:381-386. The controlling effect according to the present invention is determined by testing the Warm Body assay against the yellow fever mosquito, A. aegypti Rockefeller strain.
as §1, with “Observations of controlling efficacy were made on host-seeking females of uniform age, 5 to 10 days old selected as mentioned in the publication mentioned hereinabove. Tested hungry females had access to 10% sugar solution but were not blood-fed. The” for “The”
In this in-vitro assay the number of A. aegypti landing on a warm body treated with the tested stimuli was measured in order to assess the repellency effect. […]

Row | SMILES | Mean ± SD of normalized repulsion of mosquitoes Aedes aegypti (concentration 0.016 mg/mL) | Mean ± SD of normalized repulsion of mosquitoes Aedes aegypti (concentration 0.08 mg/mL) | Mean ± SD of normalized repulsion of mosquitoes Aedes aegypti (concentration 0.4 mg/mL) | Mean ± SD of normalized repulsion of mosquitoes Aedes aegypti (concentration 2 mg/mL) | Mean ± SD of normalized repulsion of mosquitoes Aedes aegypti (concentration 10 mg/mL)
1 | CCN(CC)C(=O)c1cccc(C)c1 [DEET, N,N-diethyl-3-methylbenzamide] | 90% ± 9% | 42% ± 7% | 11% ± 5% | 2% ± 1% | 3% ± 3%
2 | CCCCN(CCC(=O)OCC)C(C)=O [IR3535, ethyl butylacetylaminopropionate] | 103% ± 20% | 108% ± 14% | 31% ± 5% | 22% ± 9% | 11% ± 2%
